# Measured values taken from patent US6740651B2, “Aminoquinazolines which inhibit signal transduction mediated by tyrosine kinases” (Boehringer Ingelheim Pharma KG, priority 2000, dated 2004).
# Target: T1, human EGF-R (Homo sapiens, UniProt P00533)
# T1 construct: expressed in transfected cells; host or cells: F/L-HERc cells (murine IL-3-dependent FDC-P1 line transduced with LXSN retroviral vector carrying human EGF-R cDNA; packaging line GP+E86)
# Assay: Inhibition of the EGF-dependent proliferation of F/L-HERc cells (Cell Titer 96 proliferation assay)
# Assay type: cell-based
# Conditions: F/L-HERc cells (murine IL-3-dependent line expressing human EGF-R), stimulated with EGF 20 ng/ml, 48 hours at 37° C.
# Text: A cell line of murine origin dependent on interleukin-3-(IL-3) which was genetically modified to express functional human EGF-R was used here. The proliferation of these cells known as F/L-HERc can therefore be stimulated either by murine IL-3 or by EGF (cf. von Rüden, T. et al. in EMBO J. 7, 2749-2756 (1988) and Pierce, J. H. et al. in Science 239, 628-631 (1988)).
# The starting material used for the F/L-HERc cells was the cell line FDC-P1, the production of which has been described by Dexter, T. M. et al. in J. Exp. Med. 152, 1036-1047 (1980). Alternatively, however, other growth-factor-dependent cells may also be used (cf. for example Pierce, J. H. et al. in Science 239, 628-631 (1988), Shibuya, H. et al. in Cell 70, 57-67 (1992) and Alexander, W. S. et al. in EMBO J. 10, 3683-3691 (1991)). […]
# In order to determine the inhibitory activity of the compounds according to the invention the relative cell number was measured in O.D. units using the Cell Titer 96™ Aqueous Non-Radioactive Cell Proliferation Assay (Promega). […]
# T1 sequence (P00533 25-1210): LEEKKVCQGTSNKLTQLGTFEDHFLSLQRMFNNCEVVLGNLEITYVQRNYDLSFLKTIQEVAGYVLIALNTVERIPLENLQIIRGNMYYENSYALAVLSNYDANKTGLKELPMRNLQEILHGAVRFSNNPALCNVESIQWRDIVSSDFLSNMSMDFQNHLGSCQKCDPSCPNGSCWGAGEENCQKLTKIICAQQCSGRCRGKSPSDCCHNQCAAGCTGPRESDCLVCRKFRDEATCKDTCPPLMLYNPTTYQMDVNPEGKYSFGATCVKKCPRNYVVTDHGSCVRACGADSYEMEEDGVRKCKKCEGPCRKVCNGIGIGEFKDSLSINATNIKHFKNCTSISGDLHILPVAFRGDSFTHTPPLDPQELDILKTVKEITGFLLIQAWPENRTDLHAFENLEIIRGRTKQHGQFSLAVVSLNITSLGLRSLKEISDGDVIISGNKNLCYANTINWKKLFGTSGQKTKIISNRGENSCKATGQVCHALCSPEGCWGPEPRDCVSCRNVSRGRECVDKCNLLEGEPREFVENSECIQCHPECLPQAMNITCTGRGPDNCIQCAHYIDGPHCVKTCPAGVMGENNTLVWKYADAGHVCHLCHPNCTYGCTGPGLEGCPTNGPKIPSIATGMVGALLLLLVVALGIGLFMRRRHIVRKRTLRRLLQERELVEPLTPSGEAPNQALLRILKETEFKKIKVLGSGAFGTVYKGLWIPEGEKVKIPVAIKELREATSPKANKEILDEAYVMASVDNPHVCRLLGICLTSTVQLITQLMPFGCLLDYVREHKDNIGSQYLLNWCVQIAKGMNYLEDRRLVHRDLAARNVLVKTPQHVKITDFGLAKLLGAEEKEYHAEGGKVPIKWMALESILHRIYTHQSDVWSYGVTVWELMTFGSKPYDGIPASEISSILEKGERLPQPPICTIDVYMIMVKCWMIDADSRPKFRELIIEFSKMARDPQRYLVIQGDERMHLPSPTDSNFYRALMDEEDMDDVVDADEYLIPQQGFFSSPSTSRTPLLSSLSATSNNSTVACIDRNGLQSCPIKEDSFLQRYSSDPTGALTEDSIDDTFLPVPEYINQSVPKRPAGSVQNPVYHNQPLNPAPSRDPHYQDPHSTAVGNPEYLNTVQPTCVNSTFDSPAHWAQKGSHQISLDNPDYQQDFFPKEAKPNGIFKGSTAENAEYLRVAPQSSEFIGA
structure (smiles),measurement,value
"COC[C@H]1CN(CC=CC(=O)Nc2cc3c(Nc4ccc(F)c(Cl)c4)ncnc3cc2OCC2CC2)CC(=O)O1 [Example 1, 4-[(3-chloro-4-fluoro-phenyl)amino]-6-{[4-((R)-2-methoxymethyl-6-oxo-morpholin-4-yl)-1-oxo-2-buten-1-yl]amino}-7-cyclopropylmethoxy-quinazoline]",IC50,2 nM
